Experimental findings from article PMC11813147, “Bioactivity assessment of peptides derived from salted jellyfish (Rhopilema hispidum) byproducts” (PLOS ONE, 2025) are described below.

Data set [1] can be described thus: DPPH radical scavenging assay. It counts as biochemical. The following applies: supplement tables; for DPPH, mean±SD: n = 3. The procedure: The DPPH radical scavenging activity of the sample was assessed following a modified protocol based on a previous study. In each well of a 96-well plate, 10 μL of the sample was added, followed by 190 μL of 0.1 mM DPPH solution in 70% ethanol. The mixture was then incubated at room temperature in the dark for 30 min. After the incubation period, the absorbance of the mixture was measured at 517 nm. The DPPH radical scavenging activity was calculated using the following equation (1):
DPPHradicalscavengingactivity%=Acontrol–Asample/Acontrol×100 (1)
In this equation, Acontrol represents the absorbance of a control solution containing all reagents except for the test samples, while Asample is the absorbance of the mixture (the sample combined with 0.1 mM DPPH). To determine the Trolox equivalent antioxidant capacity (TEAC), a Trolox standard curve was utilized. The results were expressed as millimoles of Trolox equivalents per milligram of protein (mM TE/mg protein).
For orientation: The DPPH test is a chemical assay of radical scavenging.

The nature of data set [2]: ABTS radical scavenging assay. It counts as biochemical. The note with it: supplement tables; for ABTS, mean±SD: n = 3. The procedure:
The ABTS radical scavenging activity of the sample was measured using a method adapted from Mirzaei et al.. The ABTS radical was generated by mixing 7 mM ABTS with 2.45 mM potassium persulfate in a 1:1 ratio and incubating the mixture in the dark at room temperature for 12 to 16 h. The resulting solution was then diluted to achieve an absorbance of 0.74 ± 0.03 at 734 nm, using deionized water for adjustments. Next, 10 μL of the sample was added to 190 μL of the ABTS solution. The mixture was incubated in the dark for 7 min, after which the absorbance was measured at 734 nm. The ABTS radical scavenging activity (%) was calculated using the following equation (2):
ABTSradicalscavengingactivity%=Acontrol–Asample/Acontrol×100 (2)
In this equation, Acontrol refers to the absorbance of the control solution (which contains all reagents except the test samples), while Asample refers to the absorbance of the mixture containing the sample and the ABTS solution. To determine the Trolox equivalent antioxidant capacity (TEAC), a Trolox standard curve was used, and the results were expressed as millimoles of Trolox equivalents per milligram of protein (mM TE/mg protein).

Data set [3] is described as follows: Ferric reducing antioxidant power (FRAP) assay. It counts as biochemical. On the procedure:
The FRAP assay was conducted following the method outlined by Rumpf et al.. The FRAP solution was prepared by mixing 300 mM acetate buffer (pH 3.6), 10 mM TPTZ (2,4,6-Tris(2-pyridyl)-s-triazine) in 40 mM hydrochloric acid, and 20 mM FeCl3 in a ratio of 10:1:1. In a 96-well plate, 10 μL of the sample was combined with 190 μL of the FRAP solution and incubated in the dark for 15 min. The absorbance of the mixture was then measured at 593 nm. FeSO4 was used to create the standard curve, and the results were expressed as millimoles of FeSO4 equivalent per milligram of protein (mM FeSO4/mg protein).

Data set [4] concerns RAW 264.7. Description: Anti-inflammation assay: released NO in LPS-stimulated RAW 264.7 (Griess). It counts as cell-based, Murine. The note with it: then 1 µg/mL LPS 24 h; for Released NO: peptide 10 µg/mL 1 h; for Released NO, mean±SD: peptide 10 µg/mL pre-treatment 1 h, Griess reagent, n = 3. On the procedure:
(§1) Murine macrophage cells (RAW 264.7; ATCC TIB-71™) were cultured in Dulbecco’s Modified Eagle’s Medium (DMEM) that was supplemented with 10% heat-inactivated fetal bovine serum (FBS) and 1% antibiotic solution. Colorectal adenocarcinoma cells (CaCo-2; ATCC HTB 37™) were cultured in Eagle’s Minimum Essential Medium (EMEM), also supplemented with 10% heat-inactivated FBS and 1% antibiotic solution. Both cell types were maintained in a humidified incubator with 5% CO2. The cell culture medium was refreshed every three days.
The anti-inflammation assay was conducted following the method described by Barzkar et al. with slight modifications. RAW 264.7 (1 x 10^5 cells) was seeded into a 96-well plate to allow for cell attachment. After 24 h, the cells were pre-treated with fresh medium containing peptide samples at a concentration of 10 µg/mL for 1 h. Subsequently, the treated cells were stimulated with 1 µg/mL lipopolysaccharide (LPS) for an additional 24 h. Unstimulated cells were included as a negative control. At the end of the treatment period, the conditioned medium was collected for the determination of released nitric oxide (NO). Griess’s reagent (Promega) was utilized to measure the NO concentration, following the manufacturer’s instructions. A NO calibration curve was generated to quantify the released NO in the conditioned medium.
Background: Nitrite, measured by Griess reagent, commonly stands in for NO production.

In data set [5] the test system is RAW 264.7. Description: Cytotoxicity assessment (MTT). The following applies: peptide 10 µg/mL, 72 h; for Cell viability, mean±SD: relative to untreated cells, n = 3, SD. It counts as cell-based, Murine. The procedure:
as §1
Cytotoxicity assessment was performed following the method described by Yang et al., with slight modifications. RAW 264.7 was seeded with 1 x 10^5 cells in a 96-well plate with an appropriate cell culture medium. After allowing the cells to attach, the medium was replaced with a fresh cell culture medium containing the peptide samples at a concentration of 10 µg/mL. The treated cells were incubated for an additional 72 h. At the designated time, fresh medium was added, which included 3-(4,5-dimethylthiazol-2-yl)-2,5-diphenyltetrazolium bromide (MTT) at a concentration of 0.5 mg/mL. After 3 h, formazan crystals were observed. The medium was then removed, and the crystals were dissolved in 100% dimethyl sulfoxide (DMSO). A microplate reader (Synergy HTX; Biotek, Multi-Mode Reader, Winooski, VT, USA) was utilized to measure the absorbance at 570 nm (measurement wavelength) and 630 nm (reference wavelength). The percentage of cell viability was calculated relative to untreated cells using the following equation (5):
Cellviability%=ODtreatment–ODblank/ODuntreated–ODblank×100 (5)
Where ODtreatment is the absorbance of the treated sample, ODuntreated is the absorbance of the untreated sample, and ODblank is the absorbance from wells without treated and untreated samples.

[6] abbreviates: 10 µL sample + 190 µL FRAP solution, 15 min dark, 593 nm, FeSO4 standard curve, mean ± SD, n = 3, SD.

On to “NQKAMQELNE [P1, synthesized peptide identified from jellyfish fraction PUR20C]”, for which the “DPPH, mean±SD” value in data set [1] is 1.16±0.15^H TE/mg protein. Moreover, the DPPH in data set [1] (replicate 1) worked out at 0.99 TE/mg protein; in data set [1] (replicate 2), 1.25 TE/mg protein; in data set [1] (replicate 3), 1.25 TE/mg protein. In addition, the “ABTS, mean±SD” value in data set [2] is 4.44 TE/mg protein. In addition, the ABTS was 4.91 TE/mg protein in data set [2] (replicate 1), 4.11 TE/mg protein in data set [2] (replicate 2) and 4.31 TE/mg protein in data set [2] (replicate 3). Also, the FRAP in data set [3] (setting [6]) is reported as 8.61±0.12^E mM FeSO4/mg protein; in data set [3] (supplement tables, replicate 1), 8.47 mM FeSO4/mg protein; in data set [3] (supplement tables, replicate 2), 8.68 mM FeSO4/mg protein; in data set [3] (supplement tables, replicate 3), 8.68 mM FeSO4/mg protein. The figures for the “Released NO” value in the data set with RAW 264.7 [4] (replicate 1), in the data set on RAW 264.7 [4] (replicate 2) and in the data set on RAW 264.7 [4] (replicate 3) were 37.58 µM, 38.27 µM and 37.93 µM, respectively. Besides, in the data set with RAW 264.7 [4], the “Released NO, mean±SD” value amounted to 37.93 µM. In addition, in the data set on RAW 264.7 [5], the “Cell viability, mean±SD” value is listed as 85.94%. The values for the Cell viability in the data set with RAW 264.7 [5] (replicate 1), with RAW 264.7 [5] (replicate 2) and with RAW 264.7 [5] (replicate 3) were 88.04%, 85.76% and 84.00%, respectively.

With “GKNCGETVWE [P9, synthesized peptide identified from jellyfish fraction PUR20C]”, the “DPPH, mean±SD” value in data set [1] was 40.86±0.85^C TE/mg protein. The DPPH amounted to 40.24 TE/mg protein in data set [1] (replicate 1), 41.83 TE/mg protein in data set [1] (replicate 2) and 40.51 TE/mg protein in data set [1] (replicate 3). Further, the “ABTS, mean±SD” value in data set [2] is recorded as 103.21±2.27^F TE/mg protein. For the same sequence, the ABTS in data set [2] (replicate 1) amounted to 105.08 TE/mg protein; in data set [2] (replicate 2), 100.67 TE/mg protein; in data set [2] (replicate 3) it was 103.88 TE/mg protein. The FRAP in data set [3] (setting [6]) is on record as 13.03±0.8^C mM FeSO4/mg protein; in data set [3] (supplement tables, replicate 1), 13.31 mM FeSO4/mg protein; in data set [3] (supplement tables, replicate 2), 13.73 mM FeSO4/mg protein; in data set [3] (supplement tables, replicate 3), 12.05 mM FeSO4/mg protein. The results for the “Released NO” value in the data set with RAW 264.7 [4] (replicate 1), with RAW 264.7 [4] (replicate 2) and in the data set on RAW 264.7 [4] (replicate 3) were 35.86 µM, 36.20 µM and 34.82 µM, respectively. Moreover, the “Released NO, mean±SD” value in the data set on RAW 264.7 [4] is 35.63 ± 0.71 µM. Also, the “Cell viability, mean±SD” value with RAW 264.7 [5] amounted to 87.34%. For the same sequence, the Cell viability came out at 87.34% with RAW 264.7 [5] (replicate 1), 86.26% with RAW 264.7 [5] (replicate 2) and 88.40% with RAW 264.7 [5] (replicate 3).

For “KFNEVVYFL [P15, synthesized peptide identified from jellyfish fraction PUR20C]”, the “DPPH, mean±SD” value in data set [1] is recorded as 6.20±1.00^D TE/mg protein. Moreover, the DPPH in data set [1] (replicate 1) was 5.49 TE/mg protein; in data set [1] (replicate 2), 5.76 TE/mg protein; in data set [1] (replicate 3), 7.35 TE/mg protein. Moreover, the “ABTS, mean±SD” value in data set [2] was 131.66±1.15^B TE/mg protein. In addition, the ABTS in data set [2] (replicate 1) was found to be 132.32 TE/mg protein; in data set [2] (replicate 2), 130.32 TE/mg protein; in data set [2] (replicate 3) it was 132.32 TE/mg protein. Moreover, the FRAP in data set [3] (setting [6]) was 4.61±0.73^H mM FeSO4/mg protein; in data set [3] (supplement tables, replicate 1), 3.84 mM FeSO4/mg protein; in data set [3] (supplement tables, replicate 2), 4.68 mM FeSO4/mg protein; in data set [3] (supplement tables, replicate 3), 5.31 mM FeSO4/mg protein. Besides, the “Released NO” value worked out at 32.75 µM in the data set on RAW 264.7 [4] (replicate 1), 32.75 µM in the data set with RAW 264.7 [4] (replicate 2) and 34.82 µM in the data set on RAW 264.7 [4] (replicate 3). Besides, the “Released NO, mean±SD” value in the data set with RAW 264.7 [4] was 33.44 µM. Also, the “Cell viability, mean±SD” value with RAW 264.7 [5] is on record as 87.22%. Moreover, the Cell viability came to 87.87% in the data set with RAW 264.7 [5] (replicate 1), 85.58% in the data set on RAW 264.7 [5] (replicate 2) and 88.22% in the data set on RAW 264.7 [5] (replicate 3).

With “EIDKLPPESRP [P7, synthesized peptide identified from jellyfish fraction PUR20C]”, in data set [1], the “DPPH, mean±SD” value stood at 1.96 TE/mg protein. Moreover, the DPPH in data set [1] (replicate 1) was 1.52 TE/mg protein; in data set [1] (replicate 2) it was 1.78 TE/mg protein; in data set [1] (replicate 3) it was 2.58 TE/mg protein. For the same sequence, the “ABTS, mean±SD” value in data set [2] is given as 1.64 TE/mg protein. The ABTS in data set [2] (replicate 1) is on record as 1.71 TE/mg protein; in data set [2] (replicate 2) it was 1.71 TE/mg protein; in data set [2] (replicate 3) it was 1.50 TE/mg protein. Further, the FRAP is reported as 12.40±1.36^C mM FeSO4/mg protein in data set [3] (setting [6]); 11.00 mM FeSO4/mg protein in data set [3] (supplement tables, replicate 1); 13.73 mM FeSO4/mg protein in data set [3] (supplement tables, replicate 2); 12.47 mM FeSO4/mg protein in data set [3] (supplement tables, replicate 3). For the same sequence, the “Released NO” value was 35.51 µM in the data set with RAW 264.7 [4] (replicate 1), 37.58 µM in the data set on RAW 264.7 [4] (replicate 2) and 33.79 µM in the data set with RAW 264.7 [4] (replicate 3). Moreover, the “Released NO, mean±SD” value in the data set with RAW 264.7 [4] stood at 35.63 ± 1.89 µM. For the same sequence, the “Cell viability, mean±SD” value with RAW 264.7 [5] is listed as 81.60%. Also, the Cell viability stood at 81.72% with RAW 264.7 [5] (replicate 1), 81.89% in the data set with RAW 264.7 [5] (replicate 2) and 81.19% in the data set with RAW 264.7 [5] (replicate 3).
